Laboratory results reported in US20260325504A1, “Genetically Engineered Human Pituitary Corticotroph Tumor Organoids Exhibit Divergent Responses to Selective Glucocorticoid Receptor Modulators” (Corcept Therapeutics Incorporated, priority 2022, published 2026).
Entries after “also recorded” stand apart in the source; their conditions may differ. Starred links: 1 amine or outer side, 2 acyl side, 3 side chain; linkers in the order of their positions; H or OH if unused. Non-standard residues stand in square brackets, D forms with d. Residues, ends and D or L forms follow the SMILES beside them. Groups on a side chain read outwards from the residue. *: point of attachment. Ethylenediamine = C(CN[*:2])N[*:1]; Hyp = O=C(O)[C@@H]1C[C@@H](O)CN1; Phg = N[C@H](C(=O)O)c1ccccc1; CO = O=C([*:1])[*:2]; Bn = c1ccc(C*)cc1

What was measured:
[1] = SST14 and SST28; cited from earlier work
iPSC^ctrl organoids [2] = assay: EdU uptake (proliferation) in iPSCctrl organoids; type: cell-based, human; conditions: 100 nM pretreatment 2 h before mifepristone
Procedure: (§1) iPSCs were stained for pituitary specific hormones including luteinizing hormone (LH), follicle-stimulating hormone (FSH), growth hormone (GH), prolactin (PRL), ACTH, cytokeratin 8/18 (CAM5.2), pituitary transcription factor PIT-1 and neuroendocrine marker Synaptophysin (Table 5). Cultures were immunostained for proliferation marker EdU (Click-IT EdU Alexa Fluor 555 Imaging Kit, Thermo Fisher Scientific C10338). Antibody dilutions were determined based on manufacturer guidelines and antibody titration (Table 5). Staining was conducted according to previously published protocols. Briefly, organoids and iPSCs grown in 8-well glass bottom chamber slides were fixed using 3.7% formaldehyde, washed with DPBS, permeabilized with 0.5% Triton X-100 (SIGMA X-100, PBS-T, 20 min at room temperature), washed with 0.01% PBS-T, and blocked with 2% donkey serum (Jackson Immuno Research 017-000-121) for 1 hour at room temperature. After blocking, primary antibodies were added and incubated overnight at 4° C. Slides were washed with 0.01% PBS-T and incubated with secondary antibodies (Table 5) with Hoechst (Thermo Fisher Scientific H1399) for 1 hour at room temperature. Organoids were washed and stored in PBS at 4° C. until microscopic analysis. High content confocal microscopy was performed using the Nikon Ti2-E Inverted Microscope (with a Crest X-Light V2 L-FOV Spinning Disk Confocal) at the University of Arizona Cancer Center, or a ZEISS LSM880 34 channel Laser Scanning Confocal Microscope at University of Arizona Marley Imaging Core. Fluorescence intensity was quantified as the percentage of marker-positive cells versus total cells, using Nikon Elements Software (Version 5.21.05). Proliferation for each iPSC line was quantified as the percentage of EdU-positive cells versus total cells.
(§2) Sonic Hedgehog (SHH) was withdrawn from the organoid growth media 16 hours prior to treatment. The experimental treatment groups included: vehicle (Veh), mifepristone (500 nM, Selleckchem S2606), GANT61 (5 μM, Stemcell Technologies 73692), ketoconazole (Keto, 10 μM, Selleckchem S1353), pasireotide (Pas, 100 nM, Target Mol TP2207-SB001), octreotide (Oct, 100 nM, Selleckchem P1017), mifepristone plus GANT61, mifepristone plus Keto, mifepristone plus Pas, relacorilant (500 nM, Corcept Therapeutics CORT125134), relacorilant plus Pas, relacorilant plus Oct, or dexamethasone (Dexa, 100 nM, SIGMA S4902). In the combination treatments, cultures were pretreated with the GANT61, Keto, Pas or Oct for 2 hours prior to treatment with mifepristone or Rela. […] The IC50 values used for each hPITO line for each drug were determined based on dose responses (FIG. 12). […]

iPSC^USP48MV organoids [3] = assay: EdU uptake (proliferation) in iPSCUSP48MV organoids; type: cell-based, human; conditions: 100 nM pretreatment 2 h before mifepristone
Procedure: as §1, §2

iPSC^ctrl organoids [4] = assay: ACTH secretion ELISA, iPSCctrl organoids; type: cell-based, human; conditions: FIG. 6G
Procedure: (§3) Sonic Hedgehog (SHH) was withdrawn from the organoid growth media 16 hours prior to treatment. The experimental treatment groups included: vehicle (Veh), mifepristone (500 nM, Selleckchem S2606), GANT61 (5 μM, Stemcell Technologies 73692), ketoconazole (Keto, 10 μM, Selleckchem S1353), pasireotide (Pas, 100 nM, Target Mol TP2207-SB001), octreotide (Oct, 100 nM, Selleckchem P1017), mifepristone plus GANT61, mifepristone plus Keto, mifepristone plus Pas, relacorilant (500 nM, Corcept Therapeutics CORT125134), relacorilant plus Pas, relacorilant plus Oct, or dexamethasone (Dexa, 100 nM, SIGMA S4902). In the combination treatments, cultures were pretreated with the GANT61, Keto, Pas or Oct for 2 hours prior to treatment with mifepristone or Rela. PitNET tissue derived organoids hPITO36, hPITO37, hPITO38, hPITO39, and hPITO40 were treated with the following experimental conditions: Vehicle (1), pasireotide (2), relacorilant (3), relacorilant & pasireotide (4), mifepristone (5), mifepristone & pasireotide (6). The IC50 values used for each hPITO line for each drug were determined based on dose responses (FIG. 12). All organoid cultures were treated for 48 hours prior to analysis.
(§4) Organoid conditioned media was collected and ACTH secretion using an ELISA according to the manufacturer's protocol (Novus Biologicals Human ACTH ELISA Kit NBP2-66401). The optical density was measured at a wavelength of 450 nm, and ACTH concentration (pg/mL) was interpolated using a standard curve with a 4-parameter logistic regression analysis using GraphPad Prism (v9.3.1).

iPSC^USP48MV organoids [5] = assay: ACTH secretion ELISA, iPSCUSP48 organoids; type: cell-based, human; conditions: FIG. 7G
Procedure: as §3, §4

ACTH = assay: Spectral flow cytometry, ACTH positive cells, hPITOs; type: cell-based, human; conditions: hPITO, pretreatment before mifepristone, FIGS. 9I, J
Text: 1.3 Generation and Culture of Human PitNET Tissue Organoids (hPITOs)
Patients undergoing planned transsphenoidal surgery for PitNETs were identified in the outpatient neuroendocrinology and neurosurgery clinics and collected by the St. Joseph's Hospital and Barrow Neurological Institute Biobank under the collection protocol PHXA-05TS038, and outcomes data protocol PHXA-0004-72-29 with approval of the Institutional Review Board (IRB) and patient consent. De-identified samples were shipped in collection and transport media (Table 3) to the Zavros laboratory (University of Arizona) for processing within 24 hours of collection. Resected PitNET tissues were washed with Dulbeccos Phosphate Buffered Saline (DPBS) supplemented with 1× Penicillin/Streptomycin, 1× Kanamycin and 1× Amphotericin/Gentamycin, minced into smaller pieces, and incubated with digestion buffer (Dulbecco's Modified Eagle Medium/Nutrient Mixture F-12 (DMEM/F12) supplemented with 0.4% Collagenase 2, 0.1% Hyaluronic Acid, 0.03% Trypsin). The tissue was incubated with Accutase (Thermo Fisher Scientific) for a further 5 minutes, and the cells were pelleted and washed with DPBS supplemented with antibiotics. Dissociated cells were then seeded as Matrigel™ domes in culture dishes and overlaid with growth media (Table 4). Media was replaced every 3 days and organoids were harvested for downstream experiments or passaged after 15 days of culture (FIG. 1B).
Sonic Hedgehog (SHH) was withdrawn from the organoid growth media 16 hours prior to treatment. […] The IC50 values used for each hPITO line for each drug were determined based on dose responses (FIG. 12). […]

hPITO37 = assay: Dose response of hPITO37; type: cell-based, human; conditions: hPITO37, FIG. 12
Procedure: as §3

[6] = tested on: patients with Cushing's syndrome; conditions: pasireotide monotherapy, patients with CD, cited from earlier work
SSTR5 = conditions: cited from earlier work

Row | Compound | half-life [1] | effect on proliferative response to mifepristone (EdU uptake) (iPSC^ctrl organoids [2]) | effect on proliferative response to mifepristone (EdU uptake) (iPSC^USP48MV organoids [3]) | effect on ACTH secretion in response to mifepristone (iPSC^ctrl organoids [4]; 100 nM pretreatment 2 h before mifepristone) | reduction of hormone (ACTH) secretion in combination with relacorilant (iPSC^ctrl organoids [4]; with relacorilant) | effect on ACTH secretion in response to mifepristone (iPSC^USP48MV organoids [5]; iPSCUSP48, 100 nM pretreatment 2 h before mifepristone) | reduction of hormone (ACTH) secretion in combination with relacorilant (iPSC^USP48MV organoids [5]; iPSCUSP48MV, with relacorilant) | effect on mifepristone-induced increase of ACTH expressing cells (ACTH) | drug response (sensitivity) (hPITO37) | patients with normalized cortisol [6] | patients with normalized urinary free cortisol ([6]; two large prospective studies) | binding to / activation of SSTR5 (SSTR5)
1 | SST | < 3 min | – | – | – | – | – | – | – | – | – | – | –
2 | NCCCC[C@@H]1NC(=O)[C@@H](Cc2c[nH]c3ccccc23)NC(=O)[C@H](c2ccccc2)NC(=O)[C@@H]2C[C@@H](OC(=O)NCCN)CN2C(=O)[C@H](Cc2ccccc2)NC(=O)[C@H](Cc2ccc(OCc3ccccc3)cc2)NC1=O [pasireotide] (cyclo([Hyp]([CO-Ethylenediamine])[Phg][dW]KY(Bn)F)) | – | no effect | no effect | significantly reduced ACTH secretion | greater magnitude compared to that of octreotide plus relacorilant | significantly reduced ACTH secretion | greater magnitude compared to that of octreotide plus relacorilant | not inhibited | insensitive | up to 42% | up to 42% | high-affinity binding to SSTR5; also recorded: preferentially binds or activates somatostatin receptor type 5 (SSTR5)
